The values below come from patent publication US10646572B2, “Pharmaceutical compositions with enhanced stability” (Foresee Pharmaceuticals Co., Ltd., priority 2006, dated 2020).

Series [1] can be described thus: Effect of Vitamin E TPGS on in vitro release of leuprolide (Example 11). Format: physicochemical. The settings on record: LAHCl 15% in PLA 100DLPL/NMP, PBS pH 7.4, 37° C., FIG. 4. On the procedure:
The polymer vehicle solutions with and without excipients were prepared as following: PLA 100DLPL (0.26 IV, Lakeshore, Ala.) with a lauryl ester end group and Vitamin E TPGS were dissolved in NMP at suitable amount according to the Table 7. Then suitable amount of leuprolide hydrochloride (LAHCl) was mixed with the polymer solutions at 15% by weight. The formulations were thoroughly mixed to obtain uniform formulations.
An aliquot of the formulation suspension (about 100 mg) was injected into in 3 mL phosphate buffer saline solution at pH 7.4 with 0.1% sodium azide at 37° C. The receiving fluid was replaced at selected time points with fresh buffer solution, and the removed buffer solution diluted 10-fold with PBS at pH 7.4 was analyzed for drug concentration by HPLC. The amount released at each time point was calculated.

For series [2] the following is noted: cited from earlier work.
Series [3] is classed as physicochemical. The source says:
(§1) The injectable compositions were filled into 1.2 mlL polypropylene syringes with luer-lock tips. […] The injectable composition was sampled at pre-defined time points.

The next series in a line: in vivo. Also on record: species or system rats. The settings on record: rat, sc. On the procedure:
Each formulation was then injected into the rats subcutaneously at a volume of about 100 μL with 6 animals per group. The serum samples were collected from each animal at 3 hour, 1, 3, 7, 14, 28, 42, 56, and 70 days post injection. The serum samples were analyzed for leuprolide concentration by ELISA using the kits available from Peninsula Laboratories Inc. The leuprolide remaining in the implants at various times was analyzed by HPLC.

The nature of series [4]: Molecular weight of PLGA in PLGA/DMSO injectable compositions (GPC). Format: physicochemical. The settings on record: DMSO, 4° C., after 16 months.
Text: as §1

For series [5] the following is noted: NMP.
Protocol: Poly(DL-lactide-co-glycolide) (PLGA) of an 85/15 ratio of lactide to glycolide (DLPLG85/15, IV: 0.28) with a lauryl ester end group was dissolved in N- methyl-2-pyrrolidone (NMP) to give a 50% solution by weight. The leuprolide salts were mixed with the PLGA solution in NMP to give a uniform injectable composition at ratios shown in the Table 1. The injectable compositions were filled into 1.2 mL polypropylene syringes with luer-lock tips. Then the pre-filled syringes were sealed using luer-lock caps. The capped syringes were packaged in a container and sealed in a plastic bag under vacuum and then stored at 4° C. and room temperature (˜22° C.) for up to 18 months. The injectable composition was sampled at 24 h, 1, 2, 3, 6, 12, and 18 month time points. […] Molecular weight of the polymer was determined by gel permeation chromatography (GPC) using polystyrene standards with known molecular weights.
Series [6] can be described thus: In vitro release of leuprolide from injectable polymeric formulations (Example 10). Format: physicochemical. The settings on record: 6% by weight in PLGA/NMP, PBS pH 7.4, 37° C., FIG. 3. On the procedure:
Three polymer vehicle solutions were prepared as following: PLG 85/15 (0.28 IV) with a lauryl ester end group was dissolved in NMP at 50% and 55% by weight, and RG503 (0.42 IV) with a carboxylic acid end group was dissolved in NMP at 50% by weight. Then suitable amount of leuprolide hydrochloride (LAHCl) and leuprolide mesylate (LAMS) were mixed with the polymer solutions at 6% by weight each. The formulations were thoroughly mixed to obtain uniform formulations.
An aliquot of the formulation suspension (about 100 mg) was injected into in 3 mL phosphate buffer saline solution at pH 7.4 with 0.1% sodium azide at 37° C. The receiving fluid was replaced at selected time points with fresh buffer solution, and the removed buffer solution diluted 2-fold with phosphate buffer at pH 7.4 was analyzed for drug concentration by HPLC. The amount released at each time point was calculated.

Counter-ions that a name gives are not always drawn. Like-named read-outs stand apart in the source and are kept apart here.

Consider Vitamin E TPGS, for which, in series [1], the “effect on initial burst” value is “did not affect the initial burst” and the “effect on release rate of leuprolide at later stages” value is recorded as “seemed to reduce the release rate of leuprolide at later stages”.
For the molecule `C[C@@H](O)[C@@H]1NC(=O)[C@H](CCCCN)NC(=O)[C@@H](Cc2c[nH]c3ccccc23)NC(=O)[C@H](Cc2ccccc2)NC(=O)[C@@H](NC(=O)[C@H](N)Cc2ccccc2)CSSC[C@@H](C(=O)N[C@H](CO)[C@@H](C)O)NC1=O` [octreotide acetate], in series [2] (combined with polylactide-co-glicolide solution in NMP, within 5 hours), the octreotide acylated result is “more than 40%”. Besides, in series [2] (polylactide-co-glicolide solution in NMP, within the same time period (5 hours)), the “molecular weight of the polymer” value is “decreased significantly”.
As for `CCNC(=O)[C@@H]1CCCN1C(=O)[C@H](CCCNC(=N)N)NC(=O)[C@H](CC(C)C)NC(=O)[C@@H](CC(C)C)NC(=O)[C@H](Cc1ccc(O)cc1)NC(=O)[C@H](CO)NC(=O)[C@H](Cc1c[nH]c2ccccc12)NC(=O)[C@H](Cc1c[nH]cn1)NC(=O)[C@@H]1CCC(=O)N1` [leuprolide mesylate, Leuprolide Mesylate], the leuprolide degraded result in series [3] was “less than 5%”. Moreover, in the series “in vivo”, the “Cmax (serum leuprolide)” value is listed as 370.6 ng/mL and the “time at which Cmax was reached” value is 3 h.
On to `CCNC(=O)[C@@H]1CCCN1C(=O)[C@H](CCCNC(=N)N)NC(=O)[C@H](CC(C)C)NC(=O)[C@@H](CC(C)C)NC(=O)[C@H](Cc1ccc(O)cc1)NC(=O)[C@H](CO)NC(=O)[C@H](Cc1c[nH]c2ccccc12)NC(=O)[C@H](Cc1c[nH]cn1)NC(=O)[C@@H]1CCC(=O)N1` [leuprolide hydrochloride, Leuprolide Hydrochloride], for which the leuprolide degraded entry in series [3] is on record as “less than 5%”. For the same molecule, the “time at which Cmax was reached” value in “in vivo” came to 3 h. In “in vivo” (Cmax (serum leuprolide)), the concentration peaked (Cmax) at 662 ng/mL. Moreover, the “molecular weight of PLGA versus control” value in series [4] is listed as “comparable to that of the control”. In addition, in series [5] (both 4° C. and RT, after 12 months), the “molecular weight of PLGA versus blank control” value is listed as “the same as that of the blank control”. The “leuprolide release, LAHCl versus LAMS” value in series [6] is “no significant difference”.
As for `CCNC(=O)[C@@H]1CCCN1C(=O)[C@H](CCCNC(=N)N)NC(=O)[C@H](CC(C)C)NC(=O)[C@@H](CC(C)C)NC(=O)[C@H](Cc1ccc(O)cc1)NC(=O)[C@H](CO)NC(=O)[C@H](Cc1c[nH]c2ccccc12)NC(=O)[C@H](Cc1c[nH]cn1)NC(=O)[C@@H]1CCC(=O)N1` [leuprolide acetate, Leuprolide acetate, reference compound], the leuprolide degraded entry in series [3] is on record as “Up to 20%”. The “decrease of molecular weight of PLGA comparing to blank control” value was “about 40%” in series [4] and “more than 10%” in series [5] (4° C., after 6 months).
